Test results published in PMC3914206.

Legend:
Format in all cases: binding
Parameters in all cases: KINOMEscan: ABL1(F317L)-phosphorylated / KINOMEscan: ABL1(H396P)-nonphosphorylated / KINOMEscan: ABL1(H396P)-phosphorylated / KINOMEscan: ABL1(M351T)-phosphorylated / KINOMEscan: ABL1(T315I)-phosphorylated / KINOMEscan: ABL1-nonphosphorylated / KINOMEscan: ABL1-phosphorylated / KINOMEscan: ACVR2A / KINOMEscan: ACVR2B / KINOMEscan: ADCK3 / KINOMEscan: ADCK4 / KINOMEscan: AKT1 / KINOMEscan: AKT3 / KINOMEscan: ALK / KINOMEscan: ARK5 / KINOMEscan: AURKA / KINOMEscan: AURKC / KINOMEscan: BIKE / KINOMEscan: BMPR1A / KINOMEscan: BMPR1B / KINOMEscan: BMX / KINOMEscan: BRK / KINOMEscan: BRSK1 / KINOMEscan: BRSK2 / KINOMEscan: CAMK1 / KINOMEscan: CAMK1D / KINOMEscan: CAMK1G / KINOMEscan: CAMK2A / KINOMEscan: CAMK2B / KINOMEscan: AAK1 / KINOMEscan: CAMK2D / KINOMEscan: CAMK2G / KINOMEscan: ABL1(F317I)-nonphosphorylated / KINOMEscan: ABL1(F317I)-phosphorylated / KINOMEscan: ABL1(F317L)-nonphosphorylated: unit: % Ctrl
Details in all cases: Compound Concentration 10 µM
panel of 442 kinases [1] = biological target: T1, panel of 442 kinases (Homo sapiens, UniProt P42336, E545K)
T1 construct: purchased KINOMEscan
From the text: (§1) We assessed the selectivity of members of this scaffold using the KINOMEscan methodology across a near comprehensive panel of 442 kinases [[18,27]].

panel of 442 kinases [2] = biological target: T2, panel of 442 kinases (Homo sapiens, UniProt Q13882)
T2 construct: purchased KINOMEscan
From the text: as §1

panel of 442 kinases [3] = biological target: T3, panel of 442 kinases (Homo sapiens, UniProt Q00537)
T3 construct: purchased KINOMEscan
From the text: as §1

T1 sequence (P42336 whole entry E545K): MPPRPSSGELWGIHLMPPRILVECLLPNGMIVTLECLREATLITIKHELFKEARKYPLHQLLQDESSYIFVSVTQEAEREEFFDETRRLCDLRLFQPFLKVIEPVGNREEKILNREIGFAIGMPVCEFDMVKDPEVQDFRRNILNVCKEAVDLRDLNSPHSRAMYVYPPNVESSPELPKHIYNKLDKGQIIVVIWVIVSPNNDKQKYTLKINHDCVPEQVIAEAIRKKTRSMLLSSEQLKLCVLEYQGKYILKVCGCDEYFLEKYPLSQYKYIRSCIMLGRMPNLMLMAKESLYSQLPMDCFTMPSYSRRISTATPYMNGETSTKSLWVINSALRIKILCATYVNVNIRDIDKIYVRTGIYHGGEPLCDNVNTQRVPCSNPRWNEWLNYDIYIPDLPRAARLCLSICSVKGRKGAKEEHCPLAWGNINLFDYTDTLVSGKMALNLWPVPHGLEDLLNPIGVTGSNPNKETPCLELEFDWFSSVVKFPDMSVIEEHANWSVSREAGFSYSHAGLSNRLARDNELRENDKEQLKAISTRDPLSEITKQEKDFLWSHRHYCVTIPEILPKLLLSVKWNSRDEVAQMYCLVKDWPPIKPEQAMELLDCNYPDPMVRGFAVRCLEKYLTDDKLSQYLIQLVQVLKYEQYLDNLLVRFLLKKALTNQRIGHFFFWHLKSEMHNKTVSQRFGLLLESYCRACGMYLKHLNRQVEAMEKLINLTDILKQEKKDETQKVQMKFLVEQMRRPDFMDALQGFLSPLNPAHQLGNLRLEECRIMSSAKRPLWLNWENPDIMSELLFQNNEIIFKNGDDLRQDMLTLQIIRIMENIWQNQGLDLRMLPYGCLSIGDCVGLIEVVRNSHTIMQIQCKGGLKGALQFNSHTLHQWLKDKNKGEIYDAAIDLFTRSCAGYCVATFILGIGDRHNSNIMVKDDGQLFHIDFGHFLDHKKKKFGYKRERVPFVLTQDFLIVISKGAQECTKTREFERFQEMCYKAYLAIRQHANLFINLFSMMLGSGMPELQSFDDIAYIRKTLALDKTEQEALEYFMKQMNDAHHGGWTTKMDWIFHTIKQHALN
T3 sequence (Q00537 whole entry): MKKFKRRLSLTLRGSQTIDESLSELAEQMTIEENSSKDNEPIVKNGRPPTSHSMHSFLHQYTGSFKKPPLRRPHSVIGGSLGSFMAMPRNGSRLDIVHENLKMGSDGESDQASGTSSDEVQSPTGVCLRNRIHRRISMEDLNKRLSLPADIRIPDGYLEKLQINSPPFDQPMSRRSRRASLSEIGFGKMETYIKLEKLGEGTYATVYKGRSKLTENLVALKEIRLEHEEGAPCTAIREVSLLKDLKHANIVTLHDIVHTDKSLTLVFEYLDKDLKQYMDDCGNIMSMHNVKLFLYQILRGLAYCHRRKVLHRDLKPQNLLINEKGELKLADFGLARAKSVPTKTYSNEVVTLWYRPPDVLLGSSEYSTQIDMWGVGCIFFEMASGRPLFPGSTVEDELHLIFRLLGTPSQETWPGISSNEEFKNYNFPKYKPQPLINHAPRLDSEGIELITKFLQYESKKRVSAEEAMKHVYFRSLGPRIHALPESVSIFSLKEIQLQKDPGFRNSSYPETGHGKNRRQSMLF
T2 sequence (Q13882 whole entry): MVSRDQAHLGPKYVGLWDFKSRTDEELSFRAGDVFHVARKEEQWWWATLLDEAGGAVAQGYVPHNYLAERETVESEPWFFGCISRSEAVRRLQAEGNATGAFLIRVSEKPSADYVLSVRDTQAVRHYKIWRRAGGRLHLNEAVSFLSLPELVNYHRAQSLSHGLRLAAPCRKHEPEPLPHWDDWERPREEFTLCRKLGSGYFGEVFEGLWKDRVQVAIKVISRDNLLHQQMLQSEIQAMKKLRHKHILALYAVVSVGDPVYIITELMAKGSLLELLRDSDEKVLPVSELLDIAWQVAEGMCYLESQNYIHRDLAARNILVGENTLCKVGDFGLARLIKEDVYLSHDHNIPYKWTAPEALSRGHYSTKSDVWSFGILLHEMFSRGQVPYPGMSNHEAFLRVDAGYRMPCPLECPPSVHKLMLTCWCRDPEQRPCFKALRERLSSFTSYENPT

Structure (SMILES)	KINOMEscan: PIK3CA(E545K) (panel of 442 kinases [1])	KINOMEscan: BRK (panel of 442 kinases [2])	KINOMEscan: PCTK2 (panel of 442 kinases [3])
COc1cc(C(=O)N2CCC(N3CCN(C)CC3)CC2)ccc1Nc1ncc2c(n1)N(C)c1ccccc1C(=O)N2C [15 (LRRK2-IN-1)]	100	58	83
CCOc1cc(C(=O)N2CCC(N3CCN(C)CC3)CC2)ccc1Nc1ncc2c(n1)N(C1CCCC1)c1ccccc1C(=O)N2C [Compound 26]	100	62	100
COc1cc(C(=O)N2CCC(N3CCN(C)CC3)CC2)ccc1Nc1ncc2c(n1)N1CCc3cccc(c31)C(=O)N2C [Compound 24]		54	95
COc1cc(C(=O)N2CCC(N3CCN(C)CC3)CC2)ccc1Nc1ncc2c(n1)N(C1CCCC1)c1ccccc1C(=O)N2C [Compound 25, 11-cyclopentyl-2-((2-methoxy-4-(4-(4-methylpiperazin-1-yl)piperidine-1-carbonyl)phenyl)amino)-5-methyl-5H-benzo[e]pyrimido[5,4-b][1,4]diazepin-6(11H)-one]	100	29	80
